Laboratory results reported in paper PMC9597002, “The Combination of Individual Herb of Mi-Jian-Chang-Pu Formula Exerts a Synergistic Effect in the Treatment of Ischemic Stroke in Rats” (Oxidative Medicine and Cellular Longevity, 2022).

How the values were obtained:
MCAO rats [1] = experiment: Infarct volume measurement by TTC staining; format: in vivo, Sprague-Dawley rats; settings: oral once daily 14 days, compared with model group
MCAO rats [2] = experiment: Brain histopathology by HE staining; settings: oral once daily 14 days
Method: (§1) 0.5% CMC-Na was used as vehicle with an equal volume (100 g/ml body-weight) for each rat. Treatments were administered once daily by oral gavage for 14 consecutive days. After the last administration, rats were fasted for 12 h, MCAO surgery was performed according to the reference by H Nagasawa and K Kogure. […] After 2 h of sustained MCAO, reperfusion was conducted, and the rats in sham operation group received the same surgical procedures except that the occluding monofilament was not inserted.
For brain histology, the tissue was fixed in 4% paraformaldehyde for 24 h, then the brain slices were rinsed, dehydrate, paraffin embedded, sectioned, and stained with hematoxylin-eosin (HE). The histopathological changes were observed under optical microscope.

MCAO rats [3] = experiment: Neurological deficit score (Longa's five-point scale) 24 h after reperfusion; settings: oral once daily 14 days, compared with model group
Method: as §1
24 h after reperfusion, all rats were tested for sensorimotor ability according to the Longa's five-point scale (0, no neurologic deficit; 1, a slight forelimb flexion; 2 severe forelimb flexion and decreased resistance to lateral push; 3, spontaneous rotation or contralateral rotation to the affected side; 4, consciousness reduced and unable or difficult to move; 5, no response to stimulation).

SMILES | Cerebral infarction volume ratio (TTC staining) (MCAO rats [1]) | Histopathological changes in brain tissue (HE staining) (MCAO rats [2]) | Neurological deficit score (MCAO rats [3])
CC(/C=C/C=C(\C)C(=O)O[C@@H]1O[C@H](CO[C@@H]2O[C@H](CO)[C@@H](O)[C@H](O)[C@H]2O)[C@@H](O)[C@H](O)[C@H]1O)=C\C=C\C=C(C)\C=C\C=C(/C)C(=O)O[C@@H]1O[C@H](CO[C@@H]2O[C@H](CO)[C@@H](O)[C@H](O)[C@H]2O)[C@@H](O)[C@H](O)[C@H]1O [A1, crocin I] | reduce the infarction volume significantly | protective effect on brain injury | significant effects
C/C=C\c1cc(OC)c(OC)cc1OC [B1, β-asarone] | reduce the infarction volume significantly | protective effect on brain injury | significant effects
